The supplement of paper PMC10307832

What was measured:
Test in all cases: relative viability (nuclei count vs DMSO), 5 days (fraction); higher = more cells survive
R406 + Linsitinib = compound: COc1cc(Nc2ncc(F)c(Nc3ccc4c(n3)NC(=O)C(C)(C)O4)n2)cc(OC)c1OC [R406] + C[C@]1(O)C[C@@H](c2nc(-c3ccc4ccc(-c5ccccc5)nc4c3)c3c(N)nccn32)C1 [Linsitinib] (partner 1 µM)
Procedure, shortened: (§1)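 Cells from lung cancer lines were seeded into 1536-well plates and, one day later, dosed by pin tool. Treatments were either a single drug or a fixed dose of an anchor drug with five library-drug doses (not always all listed) in √10 steps. After 5 days, nuclei were stained in a one-step fixation (final 0.05% Triton X-100, 1% formaldehyde, 1 ug/ml Hoechst) and counted on 4× images, and relative viability is the treated-to-vehicle nuclei ratio, as the median of duplicate plates.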

R406 + Dasatinib = compound: COc1cc(Nc2ncc(F)c(Nc3ccc4c(n3)NC(=O)C(C)(C)O4)n2)cc(OC)c1OC [R406] + Cc1nc(Nc2ncc(C(=O)Nc3c(C)cccc3Cl)s2)cc(N2CCN(CCO)CC2)n1 [Dasatinib] (partner 0.075 µM)
Procedure, shortened: as §1

R406 + Pemetrexed = compound: COc1cc(Nc2ncc(F)c(Nc3ccc4c(n3)NC(=O)C(C)(C)O4)n2)cc(OC)c1OC [R406] + Nc1nc2[nH]cc(CCc3ccc(C(=O)N[C@@H](CCC(=O)O)C(=O)O)cc3)c2c(=O)[nH]1 [Pemetrexed] (partner 0.2 µM)
Procedure, shortened: as §1

Daporinad + Lapatinib = compound: O=C(/C=C/c1cccnc1)NCCCCC1CCN(C(=O)c2ccccc2)CC1 [Daporinad] + CS(=O)(=O)CCNCc1ccc(-c2ccc3ncnc(Nc4ccc(OCc5cccc(F)c5)c(Cl)c4)c3c2)o1 [Lapatinib] (partner 2 µM)
Procedure, shortened: as §1

| Cell Line | relative viability (R406 + Linsitinib; first compound 0.08 µM) | relative viability (R406 + Linsitinib; first compound 0.253 µM) | relative viability (R406 + Linsitinib; first compound 0.8 µM) | relative viability (R406 + Linsitinib; first compound 2.53 µM) | relative viability (R406 + Linsitinib; first compound 8 µM) | relative viability (R406 + Dasatinib; first compound 0.08 µM) | relative viability (R406 + Dasatinib; first compound 0.253 µM) | relative viability (R406 + Dasatinib; first compound 0.8 µM) | relative viability (R406 + Dasatinib; first compound 2.53 µM) | relative viability (R406 + Dasatinib; first compound 8 µM) | relative viability (R406 + Pemetrexed; first compound 0.08 µM) | relative viability (R406 + Pemetrexed; first compound 0.253 µM) | relative viability (R406 + Pemetrexed; first compound 0.8 µM) | relative viability (R406 + Pemetrexed; first compound 2.53 µM) | relative viability (R406 + Pemetrexed; first compound 8 µM) | relative viability (Daporinad + Lapatinib; first compound 0.0005 µM) | relative viability (Daporinad + Lapatinib; first compound 0.001581 µM) | relative viability (Daporinad + Lapatinib; first compound 0.005 µM) | relative viability (Daporinad + Lapatinib; first compound 0.01581 µM) |
| --- | --- | --- | --- | --- | --- | --- | --- | --- | --- | --- | --- | --- | --- | --- | --- | --- | --- | --- | --- |
| 201T | 0.995 | 1.06 | 1.07 | 0.915 | 0.824 | 0.578 | 0.548 | 0.502 | 0.467 | 0.41 | 0.322 | 0.359 | 0.322 | 0.309 | 0.294 | 0.957 | 1.05 | 1.02 | 1.04 |
| A549 | 0.52 | 0.659 | 0.619 | 0.584 | 0.418 |  |  |  |  |  |  |  |  |  |  | 0.973 | 1.05 | 0.938 | 0.607 |
| A-427 | 1.09 | 1.19 | 1.17 | 1.07 | 0.964 | 0.743 | 0.746 | 0.74 | 0.427 | 0.54 | 0.947 | 1.01 | 1.05 | 0.979 | 0.787 | 1.05 | 1.12 | 0.962 | 0.863 |
| ABC-1 | 0.863 | 1.03 | 0.803 | 0.594 | 0.555 | 0.535 | 0.54 | 0.415 | 0.363 | 0.298 |  |  |  |  |  | 1.14 | 0.952 | 1.24 | 0.86 |
| BEN | 0.946 | 1.22 | 0.981 | 0.877 | 0.708 | 0.337 | 0.312 | 0.309 | 0.413 | 0.31 | 0.773 | 0.879 | 0.805 | 0.835 | 0.438 | 0.646 | 0.688 | 0.858 | 1.11 |
| CAL-12T | 0.806 | 0.909 | 0.943 | 0.495 | 0.675 | 0.357 | 0.397 | 0.483 | 0.0973 | 0.0797 | 1.22 | 1.15 | 1.17 | 0.918 | 1 | 0.599 |  | 0.722 | 0.413 |
| COR-L23 | 0.886 | 1.04 | 1.04 | 0.731 | 0.405 | 0.464 | 0.469 | 0.598 | 0.379 | 0.158 | 0.2 | 0.182 | 0.191 | 0.183 | 0.191 | 0.969 | 0.993 | 0.92 | 0.403 |
| COR-L 105 | 0.968 | 1.13 | 0.879 | 0.705 | 0.736 | 0.332 | 0.387 | 0.354 | 0.317 | 0.204 | 1.29 | 1.22 | 1.12 | 1.24 | 0.841 | 0.371 | 0.371 | 0.385 | 0.442 |
| Calu-6 | 0.937 | 1.08 | 1.12 |  | 0.49 |  |  |  |  |  |  |  |  |  |  | 1.06 | 0.959 | 0.863 | 0.413 |
| ChaGo-K-1 |  |  |  |  |  | 0.568 | 0.579 | 0.661 | 0.498 | 0.442 | 0.25 | 0.25 | 0.248 | 0.253 | 0.233 |  |  |  |  |
| EBC-1 | 1.01 | 1.07 | 1.13 | 0.732 | 0.423 |  |  |  |  |  |  |  |  |  |  | 0.238 | 0.216 | 0.206 | 0.17 |
| EKVX | 1.05 | 1.32 | 1.19 | 0.9 | 0.688 | 0.626 | 0.32 | 0.511 | 0.402 | 0.367 | 0.374 | 0.467 | 0.395 | 0.365 | 0.387 | 0.169 | 0.223 | 0.231 | 0.251 |
| EMC-BAC-2 | 0.817 | 0.87 | 0.822 | 0.707 | 0.53 | 0.293 | 0.331 | 0.385 | 0.186 | 0.173 | 0.421 | 0.457 | 0.427 | 0.499 | 0.229 | 0.93 | 0.885 | 0.846 | 0.336 |
| EPLC-272H | 1.1 | 1.18 | 1.15 | 0.717 | 0.564 | 0.319 | 0.39 | 0.321 | 0.128 | 0.102 | 0.359 | 0.359 | 0.316 | 0.231 | 0.151 | 0.772 | 1.18 | 0.936 | 1.29 |
| H3255 | 0.84 | 1.08 | 1.04 | 0.8 | 0.725 | 0.33 |  | 0.372 | 0.285 | 0.317 | 0.547 | 0.588 | 0.606 | 0.521 | 0.49 | 0.24 | 0.255 | 0.247 | 0.235 |
| HARA | 0.772 | 0.991 | 1.04 | 0.819 | 0.288 | 0.235 | 0.267 | 0.296 | 0.248 | 0.113 | 0.261 | 0.236 | 0.246 | 0.262 | 0.174 | 0.758 | 1.05 | 0.745 | 0.547 |
| HCC-15 | 0.856 | 0.914 | 1.01 |  | 0.776 | 0.629 | 0.735 | 0.662 | 0.602 | 0.331 | 0.213 | 0.223 | 0.2 | 0.201 | 0.144 | 0.864 | 0.911 | 0.859 | 0.869 |
